Source: PubChem BioAssay (NCI)
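The compound was tested at five concentrations on cells cultured in 96-well plates, with a 48-hour exposure period. TGI is the concentration that stops growth completely.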

What was measured:
Experiment in all cases: NCI anticancer screen, dose series, 48 h
MALME-3M melanoma = system: MALME-3M melanoma
RXF 393 renal = system: RXF 393 renal
CCRF-CEM leukemia = system: CCRF-CEM leukemia
MDA-MB-435 = system: MDA-MB-435
NCI-H460 lung = system: NCI-H460 lung
M14 melanoma = system: M14 melanoma
HCT-15 colon = system: HCT-15 colon
OVCAR-8 ovarian = system: OVCAR-8 ovarian
SK-MEL-2 melanoma = system: SK-MEL-2 melanoma
SNB-19 CNS = system: SNB-19 CNS
SNB-75 CNS = system: SNB-75 CNS
IGROV1 ovarian = system: IGROV1 ovarian
DU-145 prostate = system: DU-145 prostate
HS 578T breast = system: HS 578T breast
MCF7 breast = system: MCF7 breast
PC-3 prostate = system: PC-3 prostate
U251 CNS = system: U251 CNS
UACC-62 melanoma = system: UACC-62 melanoma
NCI-H226 lung = system: NCI-H226 lung
BT-549 breast = system: BT-549 breast
T-47D breast = system: T-47D breast
HCC-2998 colon = system: HCC-2998 colon
NCI-H522 lung = system: NCI-H522 lung
SK-MEL-5 melanoma = system: SK-MEL-5 melanoma
HOP-92 NSCLC = system: HOP-92 NSCLC
CAKI-1 renal = system: CAKI-1 renal
HOP-62 NSCLC = system: HOP-62 NSCLC
NCI-H23 lung = system: NCI-H23 lung
MOLT-4 leukemia = system: MOLT-4 leukemia
K-562 leukemia = system: K-562 leukemia
HL-60(TB) leukemia = system: HL-60(TB) leukemia
SK-OV-3 ovarian = system: SK-OV-3 ovarian
COLO 205 colon = system: COLO 205 colon
HCT-116 colon = system: HCT-116 colon
RPMI-8226 leukemia = system: RPMI-8226 leukemia
SF-295 CNS = system: SF-295 CNS
OVCAR-3 ovarian = system: OVCAR-3 ovarian
MDA-MB-231 breast = system: MDA-MB-231 breast
A498 renal = system: A498 renal
MDA-N = system: MDA-N
KM12 colon = system: KM12 colon
SK-MEL-28 melanoma = system: SK-MEL-28 melanoma
OVCAR-5 ovarian = system: OVCAR-5 ovarian
SN12C renal = system: SN12C renal
SR leukemia = system: SR leukemia
UO-31 renal = system: UO-31 renal
HT29 colon = system: HT29 colon
NCI/ADR-RES ovarian = system: NCI/ADR-RES ovarian
786-0 renal = system: 786-0 renal
SF-539 CNS = system: SF-539 CNS
SW-620 colon = system: SW-620 colon
OVCAR-4 ovarian = system: OVCAR-4 ovarian
SF-268 CNS = system: SF-268 CNS
UACC-257 melanoma = system: UACC-257 melanoma
A549 NSCLC = system: A549 NSCLC
EKVX NSCLC = system: EKVX NSCLC
LOX IMVI melanoma = system: LOX IMVI melanoma
ACHN renal = system: ACHN renal
TK-10 renal = system: TK-10 renal

Measured: TGI

CN(C)C(=S)/N=C1\SC(=Nc2ccccc2)C(=Nc2ccccc2)N1c1ccc([N+](=O)[O-])cc1
> 100 µM: MALME-3M melanoma | RXF 393 renal | CCRF-CEM leukemia | MDA-MB-435 | NCI-H460 lung | M14 melanoma | HCT-15 colon | OVCAR-8 ovarian | SK-MEL-2 melanoma | SNB-19 CNS | SNB-75 CNS | IGROV1 ovarian | DU-145 prostate | HS 578T breast | MCF7 breast | PC-3 prostate | U251 CNS | UACC-62 melanoma | NCI-H226 lung | BT-549 breast | T-47D breast | HCC-2998 colon | NCI-H522 lung | SK-MEL-5 melanoma | HOP-92 NSCLC | CAKI-1 renal | HOP-62 NSCLC | NCI-H23 lung | MOLT-4 leukemia | K-562 leukemia | HL-60(TB) leukemia | SK-OV-3 ovarian | COLO 205 colon | HCT-116 colon | RPMI-8226 leukemia | SF-295 CNS | OVCAR-3 ovarian | MDA-MB-231 breast | A498 renal | MDA-N | KM12 colon | SK-MEL-28 melanoma | OVCAR-5 ovarian | SN12C renal | SR leukemia | UO-31 renal | HT29 colon | NCI/ADR-RES ovarian

CCn1c2ccccc2c2nnc(NCCCO)nc21
> 100 µM: 786-0 renal | MALME-3M melanoma | RXF 393 renal | CCRF-CEM leukemia | MDA-MB-435 | SF-539 CNS | SW-620 colon | NCI-H460 lung | M14 melanoma | HCT-15 colon | OVCAR-8 ovarian | SK-MEL-2 melanoma | SNB-19 CNS | OVCAR-4 ovarian | SNB-75 CNS | IGROV1 ovarian | SF-268 CNS | DU-145 prostate | HS 578T breast | MCF7 breast | PC-3 prostate | UACC-257 melanoma | A549 NSCLC | U251 CNS | UACC-62 melanoma | NCI-H226 lung | BT-549 breast | T-47D breast | EKVX NSCLC | NCI-H522 lung | SK-MEL-5 melanoma | HOP-92 NSCLC | CAKI-1 renal | HOP-62 NSCLC | NCI-H23 lung | MOLT-4 leukemia | K-562 leukemia | HL-60(TB) leukemia | LOX IMVI melanoma | SK-OV-3 ovarian | ACHN renal | COLO 205 colon | HCT-116 colon | RPMI-8226 leukemia | TK-10 renal | SF-295 CNS | OVCAR-3 ovarian | MDA-MB-231 breast | A498 renal | MDA-N | KM12 colon | SK-MEL-28 melanoma | OVCAR-5 ovarian | SN12C renal | SR leukemia | HT29 colon | NCI/ADR-RES ovarian

CCCCCCCC/C=C(\Br)C(O)C(Br)Br (stereo not given)
74.7 µM: HS 578T breast
51.9 µM: ACHN renal
98.3 µM: MCF7 breast
47.6 µM: HOP-62 NSCLC
59.6 µM: KM12 colon
35.5 µM: CCRF-CEM leukemia
54.1 µM: MDA-N
39.7 µM: 786-0 renal
41.6 µM: UACC-62 melanoma
34.2 µM: SW-620 colon
63.7 µM: SK-MEL-2 melanoma | CAKI-1 renal
49.5 µM: OVCAR-8 ovarian
76.1 µM: UACC-257 melanoma
47.7 µM: NCI-H23 lung
43 µM: MALME-3M melanoma
59.1 µM: MDA-MB-435 | IGROV1 ovarian
86.8 µM: NCI-H460 lung
42.9 µM: HOP-92 NSCLC
57.2 µM: NCI/ADR-RES ovarian
41 µM: COLO 205 colon
36.6 µM: SN12C renal
68.1 µM: A498 renal
34.8 µM: OVCAR-3 ovarian
> 100 µM: SNB-19 CNS | SNB-75 CNS | DU-145 prostate | PC-3 prostate | A549 NSCLC | U251 CNS | T-47D breast | MOLT-4 leukemia | K-562 leukemia | HCT-116 colon | RPMI-8226 leukemia | TK-10 renal | MDA-MB-231 breast | SK-MEL-28 melanoma | SR leukemia
48 µM: HCC-2998 colon
85.9 µM: OVCAR-4 ovarian
47.2 µM: HCT-15 colon
48.5 µM: M14 melanoma
38.8 µM: UO-31 renal
53.1 µM: SF-268 CNS
38.4 µM: NCI-H522 lung
37.8 µM: RXF 393 renal
44.8 µM: BT-549 breast
43.6 µM: OVCAR-5 ovarian
90.6 µM: SK-OV-3 ovarian
41.2 µM: LOX IMVI melanoma
34 µM: SK-MEL-5 melanoma
41.5 µM: SF-295 CNS
92.9 µM: EKVX NSCLC
